Several values for one entry are separate records, joined by “and”; a condition that tells them apart may be missing. Identical values can stand only once.

For the experiment, the system named is P. falciparum 3D7 growth, pLDH absorbance. Put plainly: P. falciparum 3D7 growth inhibition, dose response, strain 3D7 (AID 2305).

Broadly, the IC50 is the point on the concentration scale where inhibition reaches its midpoint. High values mean lower potency, low ones higher potency. Regarding `O=C(NCCc1cccc(Cl)c1Cl)c1cnc(N2CCN(c3ccncc3)CC2)c(Cl)c1`, the half-inhibitory concentration (IC50) was 700 nM. `O=[N+]([O-])c1ccc(Oc2c(Cl)cc(S(=O)(=O)NC3CCC(CN4CCC(c5c[nH]c6ccccc56)CC4)CC3)cc2Cl)c(Cl)c1` (stereo unspecified) displayed an IC50 of 760 nM.

On to `Cc1noc(C)c1-c1ccc(C(=C2CCCCCC2)c2ccc(O)cc2)cc1`, for which the IC50 came out at 190 nM. To `CC(C)N1CCN(C(=O)c2ccc(CNCCCN3CCN(c4cccc(Cl)c4Cl)CC3)s2)CC1` belongs 720 nM; to `CC[C@H](C)CNC(=O)c1cncc(-c2ccc(CNCCCc3ccccc3)cc2)c1`, 730 nM; to `CC(C)COc1ccc(Cl)cc1Cc1ccc(-c2nc3ccc(N4CCN(C)CC4)cc3[nH]2)o1`, 950 nM. To `COc1ccc(CCNCc2ccc3nc(N)cc(C)c3c2)cc1` belongs 210 nM; to `CCCCCCN(C(=O)OCc1ccccc1)[C@@H]1CCN(C(=O)OC(C)(C)C)C[C@H]1C(=O)OCC`, 370 nM. The same measure for `NC1CCN(c2nc(NCCc3ccc(O)cc3)nc(NCc3ccccc3-c3ccc(C(F)(F)F)cc3)n2)CC1`: 750 nM; for `COc1ccc(-c2nc(NC(=O)CSc3ccccc3)sc2C)cc1`: 760 nM; for `Cc1cc(CN2C(=O)C(c3ccccc3)(c3ccccc3)N=C2N)c(C(F)(F)F)o1`: 960 nM.

In the case of `CC(CO)(CO)NCc1cc2c3ccccc3c(CNC(C)(CO)CO)cc2c2ccccc12`, the IC50 was 720 nM. Take `CC(C)CNCc1cccc(-c2cccc(CN(CCN(C)C)C(=O)Nc3ccccc3)c2)c1`: the IC50 is 800 nM. To `COc1ccc(CN2CCCN(Cc3cccc(NC(=O)c4ccc(-c5ccccc5)cc4)c3)CC2)cc1` belongs 940 nM; to `O=C(NCCCCCN1CCCN(C(=O)Nc2ccc(Cl)c(C(F)(F)F)c2)CC1)[C@@H]1C[C@H]1c1ccc(Cl)c(Cl)c1`, 850 nM; to `O=C(Nc1ccc(I)cc1)N1CCc2sccc2C1CN1CCCCC1` (stereo unspecified), 1200 nM.

`CCCNCc1ccc(-c2ccc(CN(CCOC)C(=O)[C@H]3CCCO3)cc2)nc1` registered an IC50 of 750 nM. Consider `Cc1ccc(F)c(C(=O)Nc2cccc(-c3nn4ccccc4c3-c3ccnc(Nc4cccc(F)c4)n3)c2)c1F`, for which the IC50 is 1050 nM. This IC50 and that of the compound before are within 1.5-fold of each other. The same measure for `CCC[C@@H](C(=O)NCCc1cccc(OC)c1)N1C(=O)c2c(ccc(OC)c2OC)C1C(=O)Nc1c(C)cccc1C` (stereo partly specified): 810 nM; for `O=c1cc(NCCCNC2CCc3ccc(Cl)cc32)[nH]c2ccccc12` (stereo unspecified): 860 nM.

`CN1CCCc2ccc(NC(=O)c3cc(-c4ccc(Cl)cc4)cs3)cc2C1` showed a 50% inhibitory concentration (IC50) of 790 nM. `O=C(Nc1cccc(-c2nc3ccccc3[nH]2)c1)c1cccc(NC(=O)c2ccco2)c1` came in with an IC50 of 360 nM. As to `CC(=O)Nc1ccc(CCNC(C)Cc2ccc(C(=O)Nc3ccc(CC(C)NCCc4cccc(Cl)c4)cc3)cc2)cc1` (stereo unspecified), the IC50 is 330 nM. The IC50 values of the last two compounds are within 1.5-fold of each other. `O=C(Nc1ccc(-c2nc3ccccc3[nH]2)cc1)c1cncc(Br)c1` returned an IC50 of 810 nM. This IC50 lies about 2.5-fold higher than the previous one. On to `COc1ccc2nccc([C@@H](O)CN3CCC(NCc4cc5ccc(Cl)cc5[nH]4)CC3)c2c1`, for which the IC50 came to 120 nM. For the compound `CCCCc1nc2nc(N)nc(N)c2cc1CCC`, the IC50 is 310 nM. The same measure for `O=C(Nc1nccs1)c1cc(-c2cccnc2)nc2ccc(Br)cc12`: 400 nM; for `CCN(CC)CCN(Cc1ccc(-c2ccc(Br)cc2)cc1)C(=O)Cn1c(CCc2cccc(F)c2F)nc(=O)c2ccccc21`: 790 nM; for `O=C(Nc1cccc(-c2ccc(-c3nc4ccc(C(F)(F)F)cc4[nH]3)cc2)c1)Nc1ccc(F)c(F)c1F`: 260 nM. The same measure for `O=c1ccc2ccc(F)cc2n1CCN1CCC(NCc2ccc(-c3ccccn3)s2)CC1`: 890 nM; for `CO/C(=C\C=C\c1cc2cc(Cl)c(Cl)cc2[nH]1)C(=O)NCCCNCCN(C)c1ccccc1`: 780 nM; for `CC(CCCCOCCc1ccccc1)NCC(O)c1cc(Cl)c(N)c(Cl)c1` (stereo unspecified): 790 nM.

`CCN(CC)CCOC(=O)c1ccc(NC(=O)c2cn(-c3ccccc3)nc2-c2cccs2)cc1` gave an IC50 of 380 nM. To `CC(=O)Nc1ccc(C(=O)Nc2cccc(-c3ccc(-c4nc5ccccc5[nH]4)s3)c2)cn1` belongs 180 nM; to `CCCCOC(C(=O)OCC1CCCN1C)(c1ccccc1)c1ccccc1` (stereo unspecified), 790 nM; to `CN1CCN(c2ccnc3cc4c(cc23)N(C(=O)Nc2ccc3c(c2)CCCC3=O)CC4)CC1`, 620 nM. As to `NC(N)=NN=Cc1c2ccc(Cl)cc2c(Cl)c2ccc(Cl)cc12`, the IC50 is 960 nM. The compound `CNC(=O)NC1=NC(C)(C)N(OCc2ccc(Cl)c(Cl)c2)C(NC(=O)NC)=N1` displayed an IC50 of 600 nM. Turning to `CCN1CCC(N(Cc2ccc(-c3ccc(C(F)(F)F)cc3)cc2)C(=O)Cn2c(SCc3ccc(F)cc3)nc(=O)c3c2CCC3)CC1`, the IC50 was determined as 990 nM. Compared with the last compound, the IC50 is about 1.6-fold higher. `Cc1ccccc1C1CCN(C2CCC(NC(=O)c3ccc(-c4cccs4)s3)CC2)CC1` (stereo unspecified): the IC50 is 1030 nM.

As for `OC[C@H]1CCCN1CC#Cc1cc2c(Nc3ccc(OCc4cccc(F)c4)c(Cl)c3)ncnc2s1`, the IC50 came to 1210 nM. Consider `N#Cc1c(Cl)cccc1Oc1ccc(S(=O)(=O)NC2CCC(CN3CCC(c4c[nH]c5ccccc45)CC3)CC2)cc1` (stereo unspecified), for which the IC50 was 710 nM and 1070 nM. `CCc1nc(N)nc(N)c1-c1ccc2c(c1)CCCC2`: the IC50 was 200 nM.

Regarding `N#Cc1ccc(N(CC(=O)NCCc2ccccc2)CC2CC2)c2ccccc12`, the IC50 was found to be 730 nM. The compound `CN1Cc2ccc(NS(=O)(=O)c3ccc(-c4ccoc4)cc3)cc2C1` returned an IC50 of 160 nM. Consider `NC(=O)c1ccccc1OCC(=O)Nc1cccc(-c2ccc(-c3nc4ccccc4[nH]3)cc2)c1`, for which the IC50 is 790 nM. Compared with the last compound, the IC50 is about 4.9-fold higher.

On to `CC(C)Cc1nc(N)nc(N)c1-c1ccc(Cl)cc1`, for which the IC50 came out at 140 nM. The same measure for `COc1c(C2=CCN(CCCCNC(=O)c3ccc(-c4ccc(C#N)cc4)cc3)CC2)c(C)cc2c1C(C)(C)CCC2(C)C`: 950 nM; for `CCc1cn(CCS(C)(=O)=O)c2ccc(C(=O)N[C@@H](Cc3ccccc3)[C@H](O)CNC(C)(C)CCCC(C)C)cc12`: 880 nM. The same measure for `O=c1sn(-c2csc3ccccc23)c2ccccc12`: 340 nM; for `COc1cc(/C=C/C(=O)NC2CCC(N3CCC(c4ccccc4C)CC3)CC2)cc(OC)c1` (stereo unspecified): 980 nM; for `CCOc1ccc2nc(N(CCCn3ccnc3)C(=O)C=Cc3cccs3)sc2c1`: 780 nM. In turn, `CS(=O)(=O)CCNCc1ccc(-c2ccc3ncnc(Nc4ccc(OCc5ccccc5)c(Cl)c4)c3c2)o1` displayed an IC50 of 560 nM.

The compound `CCOc1ccc(-c2nc3ccc(-c4nc5ccc(N6CCN(C)CC6)cc5[nH]4)cc3[nH]2)cc1` registered an IC50 of 110 nM. To `CCN(CC)CCOc1ccc(C(O)(C#CC(O)(c2ccc(Br)cc2)c2ccc(OCCN(CC)CC)cc2)c2ccc(Br)cc2)cc1` (stereo unspecified) belongs 620 nM; to `O=C1CN(C(=O)CCC2CCCC2)C(c2ccc(F)cc2)c2cc(F)ccc2N1` (stereo unspecified), 170 nM; to `CCOC(=O)c1cn(CC)c2cc(OCc3ccccc3)ccc2c1=O`, 950 nM. On to `Cc1noc(C)c1-c1cccc(CNCc2ccc(-c3cccc(-c4nc5ccc(F)cc5[nH]4)c3)cc2)c1`, for which the IC50 was determined as 550 nM. To `NC(N)=Nc1nc(-c2cccc(NC(=O)NCCc3c[nH]c4ccc(OCc5ccccc5)cc34)c2)cs1` belongs 810 nM. The same measure for `O=C(NCc1ccccc1S(=O)c1ccccc1CO)C(F)(F)F` (stereo unspecified): 180 nM; for `O=C(Cc1ccsc1)NCC(c1ccccc1Cl)c1c[nH]c2ccccc12` (stereo unspecified): 950 nM.

Values taken from PubChem BioAssay AID2305 (GlaxoSmithKline (GSK), 2010).
